# Measurements from article PMC7582770, “Synthesis of “All-Cis” Trihydroxypiperidines from a Carbohydrate-Derived Ketone: Hints for the Design of New β-Gal and GCase Inhibitors” (Molecules, 2020).
# Molecular target: T1, amyloglucosidase EC 3.2.1.3 (Aspergillus niger, UniProt P69328)
# T1 construct: purchased Sigma-Aldrich or Megazyme Ltd
# Test: Commercial glycosidase screening
# Type: biochemical
# Settings: 0.1 mM inhibitor
# Text: (§1) A panel of 12 commercial glycosidases (α-L-fucosidase EC 3.2.1.51 from Homo sapiens, α-galactosidase EC 3.2.1.22 from coffee beans, β-galactosidases EC 3.2.1.23 from Escherichia coli and Aspergillus oryzae, α-glucosidases EC 3.2.1.20 from yeast and rice, amyloglucosidase EC 3.2.1.3 from Aspergillus niger, β-glucosidase EC 3.2.1.21 from almonds, α-mannosidase EC 3.2.1.24 from Jack beans, β-mannosidase EC 3.2.1.25 from snail, β-N-acetylglucosaminidases EC 3.2.1.52 from Jack beans and bovine kidney) purchased from Sigma-Aldrich (St. Louis, MO, USA) or Megazyme Ltd. (Bray, Co. Wicklow, Ireland) was screened.
# (§2) The percentage (%) of inhibition towards the corresponding glycosidase was determined in quadruplicate in the presence of 100 μM of the inhibitor on the well. Each enzymatic assay (final volume 0.12 mL) contains 0.01–0.5 units/mL of the enzyme (with previous calibration) and 4.2 mM aqueous solution of the appropriate p-nitrophenyl glycopyranoside (substrate) buffered to the optimal pH of the enzyme. Enzyme and inhibitor were preincubated for 5 min at room temperature, and the reaction started by addition of the substrate. After 20 min of incubation at 37 °C, the reaction was stopped by the addition of 0.1 mL of sodium borate solution (pH 9.8). The p-nitrophenolate formed was measured by visible absorption spectroscopy at 405 nm (Asys Expert 96 spectrophotometer, Biochrom Ltd., Cambridge, England). Under these conditions, the p-nitrophenolate released led to optical densities linear with both reaction time and concentration of the enzyme (for more details, see the Supplementary Materials). The IC50 value (concentration of inhibitor required for 50% inhibition of enzyme activity) was determined from plots of % inhibition vs. different inhibitor concentrations. Each point of the graph is the average of four measures. The standard deviation for each point has been also represented in the graph.
# T1 sequence (P69328 25-640): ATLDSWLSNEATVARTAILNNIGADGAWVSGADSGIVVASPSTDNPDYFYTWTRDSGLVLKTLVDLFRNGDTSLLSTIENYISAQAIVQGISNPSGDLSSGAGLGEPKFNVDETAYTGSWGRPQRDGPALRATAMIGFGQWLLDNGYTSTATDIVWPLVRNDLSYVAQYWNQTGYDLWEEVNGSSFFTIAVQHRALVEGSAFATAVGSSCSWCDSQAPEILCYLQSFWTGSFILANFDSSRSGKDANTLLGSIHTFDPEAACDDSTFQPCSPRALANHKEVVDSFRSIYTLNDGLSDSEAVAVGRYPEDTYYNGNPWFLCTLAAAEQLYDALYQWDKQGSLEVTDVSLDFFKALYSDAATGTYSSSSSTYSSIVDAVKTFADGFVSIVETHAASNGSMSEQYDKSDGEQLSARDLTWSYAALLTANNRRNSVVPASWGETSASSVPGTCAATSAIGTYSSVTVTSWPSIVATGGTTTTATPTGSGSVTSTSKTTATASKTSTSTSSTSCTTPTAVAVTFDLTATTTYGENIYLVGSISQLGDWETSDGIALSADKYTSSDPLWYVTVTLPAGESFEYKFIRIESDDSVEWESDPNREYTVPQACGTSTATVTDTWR
row,Structure (SMILES),inhibition at 100 µM [%]
1,"CCCCCCCCCCCCN[C@H]1CNC[C@@H](O)[C@H]1O [compound 10, (3R, 4S, 5S)-3,4-Dihydroxy-5-(Dodecylamino) Piperidine]",0
2,"CCCCCCCC[C@]1(O)CNC[C@@H](O)[C@H]1O [compound 12, (3S, 4R, 5R)-3,4,5-Trihydroxy-3-Octyl-Piperidine]",0
3,"CCCCCCCCCO[C@@H]1CNC[C@@H](O)[C@H]1O [compound 21, (3R, 4R, 5R)-4,5-Dihydroxy-3-(Nonyloxy) Piperidine]",0

# Molecular target: T2, α-L-fucosidase EC 3.2.1.51 (Homo sapiens, UniProt P04066)
# T2 construct: purchased Sigma-Aldrich or Megazyme Ltd
# T2 sequence (P04066 32-466): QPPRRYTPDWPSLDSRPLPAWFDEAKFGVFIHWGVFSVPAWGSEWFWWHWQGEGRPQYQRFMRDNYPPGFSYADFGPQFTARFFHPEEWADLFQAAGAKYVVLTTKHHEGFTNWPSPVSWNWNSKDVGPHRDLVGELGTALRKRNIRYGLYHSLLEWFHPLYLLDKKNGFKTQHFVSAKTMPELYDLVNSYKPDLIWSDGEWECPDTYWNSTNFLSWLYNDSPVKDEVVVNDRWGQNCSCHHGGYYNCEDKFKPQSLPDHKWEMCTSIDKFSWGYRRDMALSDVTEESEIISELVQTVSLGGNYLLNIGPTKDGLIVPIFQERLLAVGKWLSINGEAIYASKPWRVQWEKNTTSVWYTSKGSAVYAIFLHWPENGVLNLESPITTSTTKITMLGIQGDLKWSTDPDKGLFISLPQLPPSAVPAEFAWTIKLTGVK
# Test: Commercial glycosidase screening
# Type: biochemical
# Settings: 0.1 mM inhibitor
# Text: as §1, §2
row,Structure (SMILES),inhibition at 100 µM [%]
1,"CCCCCCCCCCCCN[C@H]1CNC[C@@H](O)[C@H]1O [compound 10, (3R, 4S, 5S)-3,4-Dihydroxy-5-(Dodecylamino) Piperidine]",0
2,"CCCCCCCC[C@]1(O)CNC[C@@H](O)[C@H]1O [compound 12, (3S, 4R, 5R)-3,4,5-Trihydroxy-3-Octyl-Piperidine]",0
3,"CCCCCCCCCO[C@@H]1CNC[C@@H](O)[C@H]1O [compound 21, (3R, 4R, 5R)-4,5-Dihydroxy-3-(Nonyloxy) Piperidine]",0

# Molecular target: T3, α-mannosidase EC 3.2.1.24 (Canavalia ensiformis, UniProt C0HJB3)
# T3 construct: purchased Sigma-Aldrich or Megazyme Ltd
# T3 sequence (C0HJB3 1-981): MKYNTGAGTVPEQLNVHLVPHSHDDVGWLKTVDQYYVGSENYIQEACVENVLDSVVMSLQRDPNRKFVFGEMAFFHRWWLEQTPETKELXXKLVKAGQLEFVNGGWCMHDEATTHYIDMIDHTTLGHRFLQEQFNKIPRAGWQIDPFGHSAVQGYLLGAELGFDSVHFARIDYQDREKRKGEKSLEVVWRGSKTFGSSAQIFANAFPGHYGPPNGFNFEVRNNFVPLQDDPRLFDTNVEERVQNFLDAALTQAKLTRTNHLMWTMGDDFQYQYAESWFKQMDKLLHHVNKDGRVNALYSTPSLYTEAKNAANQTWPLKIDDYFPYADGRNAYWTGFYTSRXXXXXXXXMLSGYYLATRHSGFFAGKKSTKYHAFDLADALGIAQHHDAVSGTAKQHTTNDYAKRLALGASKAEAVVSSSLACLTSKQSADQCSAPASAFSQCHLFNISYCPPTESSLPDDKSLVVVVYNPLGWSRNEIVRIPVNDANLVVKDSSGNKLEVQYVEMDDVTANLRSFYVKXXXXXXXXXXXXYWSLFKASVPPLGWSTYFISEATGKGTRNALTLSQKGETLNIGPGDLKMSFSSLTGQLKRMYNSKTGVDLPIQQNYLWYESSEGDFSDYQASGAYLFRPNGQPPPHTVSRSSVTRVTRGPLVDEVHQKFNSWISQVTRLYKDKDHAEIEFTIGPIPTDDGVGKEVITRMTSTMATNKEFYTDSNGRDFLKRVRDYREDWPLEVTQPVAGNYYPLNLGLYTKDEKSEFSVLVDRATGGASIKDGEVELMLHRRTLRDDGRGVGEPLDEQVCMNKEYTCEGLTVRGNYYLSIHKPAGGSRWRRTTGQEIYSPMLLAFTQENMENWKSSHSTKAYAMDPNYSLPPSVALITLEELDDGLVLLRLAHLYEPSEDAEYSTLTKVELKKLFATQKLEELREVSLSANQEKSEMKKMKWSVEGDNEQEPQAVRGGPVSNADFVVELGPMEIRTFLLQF
# Test: Commercial glycosidase screening
# Type: biochemical
# Settings: 0.1 mM inhibitor; read-out: % Inhibition at 0.1 mM, α-mannosidase Jack beans
# Text: as §1, §2
row,Structure (SMILES),inhibition at 100 µM [%]
1,"CCCCCCCCCCCCN[C@H]1CNC[C@@H](O)[C@H]1O [compound 10, (3R, 4S, 5S)-3,4-Dihydroxy-5-(Dodecylamino) Piperidine]",0
2,"CCCCCCCC[C@]1(O)CNC[C@@H](O)[C@H]1O [compound 12, (3S, 4R, 5R)-3,4,5-Trihydroxy-3-Octyl-Piperidine]",0
3,"CCCCCCCCCO[C@@H]1CNC[C@@H](O)[C@H]1O [compound 21, (3R, 4R, 5R)-4,5-Dihydroxy-3-(Nonyloxy) Piperidine]",0
